Laboratory results: US11236106B2, “Cycloalkane-1,3-diamine derivative” (Daiichi Sankyo Company, Limited, priority 2018, dated 2022)
Structures can show the parent of a compound that is named as a salt. Where two headings read alike, the source gives them in different places.

Molecular target: T1, menin and MLL (menin, Flag tagged; biotinylated MLL1 peptide 1-46aa) (Homo sapiens, UniProt O00255)
T1 sequence (O00255 1-610): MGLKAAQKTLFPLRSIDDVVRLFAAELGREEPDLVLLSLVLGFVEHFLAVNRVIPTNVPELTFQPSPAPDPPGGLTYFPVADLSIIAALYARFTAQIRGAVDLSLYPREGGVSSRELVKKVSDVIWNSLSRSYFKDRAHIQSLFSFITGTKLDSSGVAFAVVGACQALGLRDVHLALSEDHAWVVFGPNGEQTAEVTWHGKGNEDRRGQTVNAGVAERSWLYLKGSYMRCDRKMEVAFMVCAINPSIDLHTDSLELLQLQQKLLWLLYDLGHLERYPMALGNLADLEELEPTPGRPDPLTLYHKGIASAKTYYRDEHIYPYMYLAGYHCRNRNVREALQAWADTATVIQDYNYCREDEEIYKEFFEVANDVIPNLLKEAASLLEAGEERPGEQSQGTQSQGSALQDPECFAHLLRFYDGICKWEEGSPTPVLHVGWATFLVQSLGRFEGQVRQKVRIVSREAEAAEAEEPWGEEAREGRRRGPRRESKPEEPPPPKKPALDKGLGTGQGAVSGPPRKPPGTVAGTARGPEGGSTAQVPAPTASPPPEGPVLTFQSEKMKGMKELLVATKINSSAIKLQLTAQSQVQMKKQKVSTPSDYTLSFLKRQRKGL
Assay: biochemical

[1] = cell free IC50 (nM), 1 nM menin, 10 nM biotinylated MLL1 peptide, AlphaLISA
[2] = IC50, binding inhibitory activity between menin and MLL, AlphaLISA, 1 nM menin, 10 nM biotinylated MLL1 peptide

Description: Then, the fluorescence signal by AlphaLISA (registered trademark, PerkinElmer Co., Ltd.) was measured using a plate reader (PerkinElmer Co., Ltd., EnVisionXcite).

SMILES	IC50 [2]	further results
Cc1ncc(-c2ccc(CN[C@H]3CC[C@@H](N(C)c4ncnc5sc(CC(F)(F)F)cc45)C3)cc2)cc1OC(F)F [Example 58, (1R,3S)-N^3-({4-[5-(difluoromethoxy)-6-methylpyridin-3-yl]phenyl}methyl)-N^1-methyl-N^1-[6-(2,2,2-trifluoroethyl)thieno[2,3-d]pyrimidin-4-yl]cyclopentane-1,3-diamine hydrochloride]		IC50 [1]: 15.2 nM
CN(c1ncnc2sc(CC(F)(F)F)cc12)[C@@H]1CC[C@H](NCc2ccc(S(=O)(=O)N3CCCCCC3)cc2)C1 [Example 59, (1R,3S)-N^3-{[4-(azepane-1-sulfonyl)phenyl]methyl)-N^1methyl-N^1-[6-(2,2,2-trifluoroethyl)thieno[2,3-d]pyrimidin-4-yl]cyclopentane-1,3-diamine hydrochloride]		IC50 [1]: 33 nM
CNc1nc(N(C)[C@H]2C[C@@H](NCc3ccc(-n4ccnc4)cc3)C[C@H]2O)c2cc(CC(F)(F)F)sc2n1 [Example 61, (1R,2S,4R)-4-({[4-(1H-imidazol-1-yl)phenyl]methyl}amino)-2-{methyl[2-(methylamino)-6-(2,2,2-trifluoroethyl)thieno[2,3-d]pyrimidin-4-yl]amino}cyclopentan-1-ol hydrochloride]		IC50 [1]: 1.9 nM
CNc1nc(N(C)[C@H]2C[C@@H](NCc3ccc(-c4cnn(S(C)(=O)=O)c4)cc3)C[C@H]2O)c2cc(CC(F)(F)F)sc2n1 [Example 62, (1R,2S,4R)-4[({4[1-(methanesulfonyl)-1H-pyrazol-4-yl]phenyl}methyl)amino]-2-{methyl[2-(methylamino)-6-(2,2,2-trifluoroethyl)thieno[2,3-d]pyrimidin-4-yl]amino}cyclopentan-1-ol hydrochloride]	2 nM	
CN(c1ncnc2sc(CC(F)(F)F)cc12)[C@@H]1CC[C@H](NCc2ccc(-c3cnc4c(c3)OCCO4)cc2)C1 [Example 63, (1R,3S)-N^3-{[4-(2,3-dihydro[l,4]dioxino[2,3-b]pyridin-7-yl)phenyl]methyl}-N^1-methyl-N^1-[6-(2,2,2-trifluoroethyl)thieno[2,3-d]pyrimidin-4-yl]cyclopentane-1,3-diamine hydrochloride]	19.9 nM	
CNc1nc(N(C)[C@H]2C[C@@H](NCc3ccc(-c4cncc5c4ccn5S(C)(=O)=O)cc3)C[C@H]2O)c2cc(CC(F)(F)F)sc2n1 [Example 64, (1R,2S,4R)-4[({4-[1-(methanesulfonyl)-1H-pyrrolo[2,3-c]pyridin-4yl]phenyl}methyl)amino]-2-{methyl[2-(methylamino)-6-(2,2,2trifluoroethyl)thieno[2,3-d]pyrimidin-4-yl]amino}cyclopentan-1-ol hydrochloride]	2.2 nM	
COc1cc(-c2ccc(CN[C@H]3C[C@@H](O)[C@@H](N(C)c4ncnc5sc(CC(F)(F)F)cc45)C3)cc2)cnc1Cl [Example 65, (1R,2S,4R)-4({[4-(6-chloro-5-methoxypyridin-3-yl)phenyl]methyl}amino)-2{methyl[6-(2,2,2-trifluoroethyl)thieno[2,3-d]pyrimidin-4-yl]amino}cyclopentan-1-ol hydrochloride]	2.5 nM	
CNC(=O)c1cccc(-c2ccc(CN[C@H]3CC[C@@H](N(C)c4ncnc5sc(CC(F)(F)F)cc45)C3)cc2)c1 [Example 66, N-methyl-4′-({[|(1S,3R)-3-{methyl[6-(2,2,2-trifluoroethyl)thieno[2,3-d]pyrimidin-4-yl]amino}cyclopentyl]amino}methyl)[1,1′-biphenyl]-3-carboxamide hydrochloride]	6.7 nM	
CNc1nc(N(C)[C@H]2C[C@@H](NCc3ccc(-c4cccc(S(=O)(=O)N(C)C)c4)cc3)C[C@H]2O)c2cc(CC(F)(F)F)sc2n1 [Example 69, 4′-({[(1R,3R,4S)-3-hydroxy-4-{methyl[2-(methylamino)-6-(2,2,2-trifluoroethyl)thieno[2,3-d]pyrimidin-4-yl]amino}cyclopentyl]amino}methyl)-N,N-dimethyl[1,1′-biphenyl]-3-sulfonamide hydrochloride]	2.8 nM	
CN(c1ncnc2sc(CC(F)(F)F)cc12)[C@H]1C[C@@H](NCc2ccc(-c3cnc(Cl)c4cc[nH]c34)cc2)C[C@H]1O [Example 70, (1R,2S,4R)-4-({[4-(4-chloro-1H-pyrrolo[3,2-c]pyridin-7-yl)phenyl]methyl}amino)-2-{methyl[6-(2,2,2-trifluoroethyl)thieno[2,3-d]pyrimidin-4-yl]amino}cyclopentan-1-ol hydrochloride]	3.8 nM	
CN(c1ncnc2sc(CC(F)(F)F)cc12)[C@H]1C[C@@H](NCc2ccc(-c3cccc(N(C)S(C)(=O)=O)c3)cc2)C[C@H]1O [Example 71, N-[4′-({[(1R,3R,4S)-3-hydroxy-4-{methyl[6-(2,2,2-trifluoroethyl)thieno[2,3-d]pyrimidin-4-yl]amino}cyclopentyl]amino}methyl)[1,1′-biphenyl]-3-yl]-N-methylmethanesulfonamide hydrochloride]	0.6 nM	
CN(c1ncnc2sc(CC(F)(F)F)cc12)[C@H]1C[C@@H](NCc2ccc(-c3cncc4c3cnn4C)cc2)C[C@H]1O [Example 72, (1R,2S,4R)-4-({[4-(1-methyl-1H-pyrazolo[3,4-c]pyridin-4-yl)phenyl]methyl}amino)-2-{methyl[6-(2,2,2-trifluoroethyl)thieno[2,3-d]pyrimidin-4-yl]amino}cyclopentan-1-ol hydrochloride]	10.7 nM	
CNc1nc(N(C)[C@H]2C[C@@H](NCc3ccc(-c4cnc(OC)c(OC)c4)cc3)C[C@H]2O)c2cc(CC(F)(F)F)sc2n1 [Example 73, (1R,2S,4R)-4-({[4-(5,6-dimethoxypyridin-3-yl)phenyl]methyl}amino)-2-{methyl[2-(methylamino)-6-(2,2,2-trifluoroethyl)thieno[2,3-d]pyrimidin-4-yl]amino}cyclopentan-1-ol hydrochloride]	6.5 nM	
COc1cc(-c2ccc(CN[C@H]3C[C@@H](O)[C@@H](N(C)c4ncnc5sc(CC(F)(F)F)cc45)C3)cc2F)cnc1F [Example 74, (1R,2S,4R)-4-({[3-fluoro-4-(6-fluoro-5-methoxypyridin-3-yl)phenyl]methyl}amino)-2-{methyl[6-(2,2,2-trifluoroethyl)thieno[2,3-d]pyrimidin-4-yl]amino}cyclopentan-1-ol hydrochloride]	6.5 nM	
CNc1nc(N(C)[C@H]2C[C@@H](NCc3ccc(-c4cc(F)cc(OC)c4)cc3)C[C@H]2O)c2cc(CC(F)(F)F)sc2n1 [Example 75, (1R,2S,4R)-4-{[(3′-fluoro-5′-methoxy[1,1′-biphenyl]-4-yl)methyl}amino}-2-{methyl[2-(methylamino)-6-(2,2,2-trifluoroethyl)thieno[2,3-d]pyrimidin-4-yl]amino}cyclopentan-1ol hydrochloride]	17.2 nM	
COc1cc(-c2ccc(CN[C@H]3C[C@@H](O)[C@@H](N(C)c4ncnc5sc(CC(F)(F)F)cc45)C3)c(F)c2)cnc1OC [Example 76, (1R,2S,4R)-4-({[4-(5,6-dimethoxypyridin-3-yl)-2-fluorophenyl]methyl}amino)-2-{methyl[6-(2,2,2-trifluoroethyl)thieno[2,3-d]pyrimidin-4-yl]amino}cyclopentan-1-ol hydrochloride]	8.6 nM	
COc1cc(-c2cnc(OC)c(OC)c2)ccc1CN[C@H]1C[C@@H](O)[C@@H](N(C)c2ncnc3sc(CC(F)(F)F)cc23)C1 [Example 77, (1R,2S,4R)-4-({[4-(5,6-dimethoxypyridin-3-yl)-2-methoxyphenyl]methyl}amino)-2-{methyl[6-(2,2,2-trifluoroethyl)thieno[2,3-d]pyrimidin-4-yl]amino}cyclopentan-1-ol hydrochloride]	10.4 nM	
COc1cc(-c2ccc(CN[C@H]3C[C@@H](O)[C@@H](N(C)c4ncnc5sc(CC(F)(F)F)cc45)C3)c(C)c2)cnc1OC [Example 78, (1R,2S,4R)-4-({[4-(5,6-dimethoxypyridin-3-yl)-2-methylphenyl]methyl}amino)-2-{methyl[6-(2,2,2-trifluoroethyl)thieno[2,3-d]pyrimidin-4-yl]amino}cyclopentan-1-ol hydrochloride]	8.5 nM	
CN(c1ncnc2sc(CC(F)(F)F)cc12)[C@H]1C[C@@H](NCc2ccc(-n3cnc4ccccc43)cc2)C[C@H]1O [Example 79, (1R,2S,4R)-4-({[4-(1H-benzimidazol-yl)phenyl]methyl}amino)-2-{methyl[6-(2,2,2-trifluoroethyl)thieno[2,3-d]pyrimidin-4-yl]amino}cyclopentan-1-ol hydrochloride]		IC50: 3.5 nM
CCOc1cc(-c2ccc(CN[C@H]3C[C@@H](O)[C@@H](N(C)c4ncnc5sc(CC(F)(F)F)cc45)C3)cc2)cnc1OC [Example 80, (1R,2S,4R)-4-({[4-(5-ethoxy-6-methoxypyridin-3-yl)phenyl]methyl}amino)-2-{methyl[6-(2,2,2-trifluoroethyl)thieno[2,3-d]pyrimidin-4-yl]amino}cyclopentan-1-ol hydrochloride]		IC50: 15.4 nM
COc1nc(N(C)[C@H]2C[C@@H](NCc3ccc(-c4cnc(OC)c(OC)c4)cc3)C[C@H]2O)c2cc(CC(F)(F)F)sc2n1 [Example 81, (1R,2S,4R)-4-({[4-(5,6-dimethoxypyridin-3-yl)phenyl]methyl}amino)-2-{[2-methoxy-6-(2,2,2-trifluoroethyl)thieno[2,3-d]pyrimidin-4-yl](methyl)amino}cyclopentan-1-ol hydrochloride]	6.1 nM	
